Laboratory results: ChEMBL document CHEMBL6078628, “A perspective on the development of small molecular neprilysin inhibitors (NEPi) with emphasis on cardiorenal disease” (Eur J Med Chem, 2024)

Legend:
Neprilysin [1] = target: T1, Neprilysin (Homo sapiens, UniProt P08473); test: Inhibition of NEP (unknown origin)
Neprilysin [2] = target: T1, Neprilysin; test: Binding affinity to NEP (unknown origin) assessed as inhibition constant
[3] = target: T2, Type-2 angiotensin II receptor (Homo sapiens, UniProt P50052); test: Inhibition of Angiotensin-2 receptor (unknown origin)
T2 sequence (P50052 whole entry): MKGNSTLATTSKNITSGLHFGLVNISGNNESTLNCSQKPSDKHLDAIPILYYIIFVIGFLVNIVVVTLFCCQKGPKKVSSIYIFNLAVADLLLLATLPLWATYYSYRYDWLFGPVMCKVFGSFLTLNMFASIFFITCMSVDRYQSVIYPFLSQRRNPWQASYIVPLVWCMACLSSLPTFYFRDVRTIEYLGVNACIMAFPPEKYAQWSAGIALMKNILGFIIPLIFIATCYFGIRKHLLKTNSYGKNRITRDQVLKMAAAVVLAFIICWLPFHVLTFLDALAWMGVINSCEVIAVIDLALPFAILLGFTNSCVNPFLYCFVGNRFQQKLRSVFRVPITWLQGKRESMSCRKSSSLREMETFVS

T1 sequence (P08473 whole entry): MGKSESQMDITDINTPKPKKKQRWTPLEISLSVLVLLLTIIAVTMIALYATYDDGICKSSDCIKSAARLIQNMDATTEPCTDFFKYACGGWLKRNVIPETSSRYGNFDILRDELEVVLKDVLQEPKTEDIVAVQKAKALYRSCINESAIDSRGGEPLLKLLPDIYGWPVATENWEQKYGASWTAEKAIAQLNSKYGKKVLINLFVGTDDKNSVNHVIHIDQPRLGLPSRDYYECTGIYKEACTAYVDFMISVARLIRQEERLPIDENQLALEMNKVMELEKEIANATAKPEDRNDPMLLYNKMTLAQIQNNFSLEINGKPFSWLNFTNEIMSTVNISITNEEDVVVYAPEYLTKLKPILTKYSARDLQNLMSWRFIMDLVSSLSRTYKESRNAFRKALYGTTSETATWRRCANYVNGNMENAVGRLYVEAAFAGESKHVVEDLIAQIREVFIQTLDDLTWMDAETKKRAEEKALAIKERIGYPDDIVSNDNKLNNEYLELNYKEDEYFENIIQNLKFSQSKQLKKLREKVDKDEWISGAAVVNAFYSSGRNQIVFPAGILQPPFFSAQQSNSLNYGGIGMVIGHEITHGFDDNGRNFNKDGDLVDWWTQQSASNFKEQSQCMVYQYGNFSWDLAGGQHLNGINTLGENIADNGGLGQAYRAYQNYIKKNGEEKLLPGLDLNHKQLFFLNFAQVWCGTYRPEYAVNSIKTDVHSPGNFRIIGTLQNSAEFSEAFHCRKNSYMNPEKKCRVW

| Compound | IC50 (Neprilysin [1]) [nM] | Ki (Neprilysin [2]) [nM] | IC50 [3] [nM] |
| --- | --- | --- | --- |
| SC[C@@H](Cc1ccccc1)c1nc2cnccc2[nH]1 | 40 | – | – |
| COC(c1ccccc1)c1cnc(C(CS)Cc2ccccc2)[nH]1 (stereo not drawn) | 1700 | – | – |
| SC[C@@H](Cc1ccc(-c2ccccc2)cc1)c1nc2cnccc2[nH]1 | 30 | – | – |
| N[C@@H](Cc1ccc(Oc2cc(I)c(O)c(I)c2)c(I)c1)C(=O)O [REVERSE TRIIODOTHYRONINE] | – | – | 29800 |

More lines, main results first:

| IC50 (Neprilysin [1]) [nM] | Ki (Neprilysin [2]) [nM] | Compound | IC50 [3] [nM] |
| --- | --- | --- | --- |
| – | 6.1 | COCCOC[C@H](CC1(C(=O)N[C@H]2CC[C@@H](C(=O)O)CC2)CCCC1)C(=O)O [CANDOXATRILAT] | – |
| – | 0.64 | COc1cc(/C=C2\CCC/C(=C\c3ccc(O)c(OC)c3)C2=O)ccc1O [CYCLOVALONE] | – |
| 5 | 0.45 | O=C(N[C@H]1CCS[C@H]2CCC[C@@H](C(=O)O)N2C1=O)[C@@H](S)Cc1ccccc1 [OMAPATRILAT] | – |
